In patent US9029559B2, “Substituted 3-heteroaroylamino-propionic acid derivatives and their use as pharmaceuticals” (SANOFI, priority 2011, dated 2015):
Like-named read-outs stand apart in the source and are kept apart here.

Target: Recombinant human cathepsin A (Homo sapiens (Human), UniProt P10619)
Experiment: Cathepsin A inhibitory activity (cleavage of Bodipy FL-labeled bradykinin, microfluidic capillary electrophoresis)
Assay type: biochemical
[1] = read-out: Activity [μM] (IC50, cathepsin A inhibitory activity)
[2] = read-out: Activity (IC50, cathepsin A inhibitory activity)

Chain of Recombinant human cathepsin A (P10619 29-326): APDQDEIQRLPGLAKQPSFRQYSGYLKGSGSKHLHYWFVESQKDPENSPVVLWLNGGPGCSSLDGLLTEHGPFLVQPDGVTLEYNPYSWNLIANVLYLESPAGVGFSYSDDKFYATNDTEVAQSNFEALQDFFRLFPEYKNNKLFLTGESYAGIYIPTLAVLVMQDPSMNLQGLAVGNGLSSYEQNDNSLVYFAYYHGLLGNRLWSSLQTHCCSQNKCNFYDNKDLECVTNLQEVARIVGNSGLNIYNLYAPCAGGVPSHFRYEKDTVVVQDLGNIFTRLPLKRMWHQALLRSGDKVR
Chain of Recombinant human cathepsin A (P10619 327-480): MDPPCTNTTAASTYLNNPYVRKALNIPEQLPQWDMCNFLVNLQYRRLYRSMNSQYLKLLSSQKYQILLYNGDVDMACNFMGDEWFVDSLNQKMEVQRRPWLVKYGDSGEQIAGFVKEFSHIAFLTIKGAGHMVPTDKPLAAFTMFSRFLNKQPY

## COc1ccc(C(=O)N[C@@H](CC(=O)O)c2ccc(C)cc2)nc1-c1cccc(-c2ccccc2)c1 [compound 204]
[1]
  IC50: 1.4 µM

## COc1ccc(C(=O)N[C@@H](CC(=O)O)c2ccc(C)cc2)nc1-c1cc(F)cc(F)c1 [compound 207]
[1]
  IC50: 2.65 µM

## COc1ccc(C(=O)N[C@@H](CC(=O)O)c2ccc(C)cc2)nc1-c1ccc(F)c(F)c1 [compound 208]
[1]
  IC50: 7.42 µM

## COc1ccc(C(=O)N[C@@H](CC(=O)O)c2ccc(C)cc2)nc1-c1ccc(C(C)=O)s1 [compound 210]
[1]
  IC50: 7.52 µM

## COc1ccc(C(=O)N[C@@H](CC(=O)O)c2ccccc2Cl)nc1-c1ccc(C(F)(F)F)cc1F [compound 214]
[2]
  IC50: 7.02 µM

## COc1ccc(C(=O)N[C@@H](CC(=O)O)c2ccc(C)cc2)nc1-c1ccncc1 [compound 215]
[2]
  IC50: 9.66 µM

## COc1ccc(C(=O)N[C@@H](CC(=O)O)c2ccc(C)cc2)nc1-c1ccc(C)c(F)c1 [compound 223]
[2]
  IC50: 1.29 µM

## COc1ccc(C(=O)N[C@@H](CC(=O)O)c2ccc(C)cc2)nc1-c1ccc(C)cc1C [compound 224]
[2]
  IC50: 3.39 µM

## COc1ccc(C(=O)N[C@@H](CC(=O)O)c2ccc(C)cc2)nc1-c1ccc(F)c(C)c1 [compound 225]
[2]
  IC50: 3.26 µM

## COc1ccc(C(=O)N[C@@H](CC(=O)O)c2ccc(C)cc2)nc1-c1ccc(F)nc1 [compound 227]
[2]
  IC50: 7.63 µM

## COc1ccc(C(=O)N[C@@H](CC(=O)O)c2ccc(C)cc2)nc1-c1ccccc1C(=O)N(C)C [compound 228]
[2]
  IC50: 3.96 µM

## COc1cc(Cl)ccc1-c1nc(C(=O)N[C@@H](CC(=O)O)c2ccc(C)cc2)ccc1OC [compound 232]
[2]
  IC50: 2.33 µM

## COc1ccc(Cl)cc1-c1nc(C(=O)N[C@@H](CC(=O)O)c2ccc(C)cc2)ccc1OC [compound 233]
[2]
  IC50: 2.24 µM

## COc1ccc(C(=O)N[C@@H](CC(=O)O)c2ccc(C)cc2)nc1-c1cc(C(F)(F)F)ccc1F [compound 236]
[2]
  IC50: 3.57 µM

## COc1ccc(C(=O)N[C@@H](CC(=O)O)c2ccc(C)cc2)nc1-c1ccc(C)o1 [compound 237]
[2]
  IC50: 3.54 µM

## COc1ccc(F)c(-c2nc(C(=O)N[C@@H](CC(=O)O)c3ccc(C)cc3)ccc2OC)c1 [compound 239]
[2]
  IC50: 1.16 µM

## COc1ccc(C(C)(C)C)cc1-c1nc(C(=O)N[C@@H](CC(=O)O)c2ccc(C)cc2)ccc1OC [compound 240]
[2]
  IC50: > 10 µM

## COc1ccc(C(=O)N[C@@H](CC(=O)O)c2ccc(C)cc2)nc1-c1ccc(Cl)c(F)c1 [compound 246]
[2]
  IC50: 4.48 µM

## COc1ccc(C(=O)N[C@@H](CC(=O)O)c2ccc(C)cc2)nc1-c1cc(C)cnc1Cl [compound 247]
[2]
  IC50: 8.43 µM

## COc1ccc(C(=O)N[C@@H](CC(=O)O)c2ccc(C)cc2)nc1-c1cccc(-c2nnc(C)o2)c1 [compound 249]
[2]
  IC50: 8.71 µM

## COc1ccc(C(=O)N[C@@H](CC(=O)O)c2ccc(C)cc2)nc1-c1ccc2ccn(C)c2c1 [compound 251]
[2]
  IC50: 8.94 µM

## COc1ccc(C(=O)N[C@@H](CC(=O)O)c2ccccc2F)nc1-c1cccc(C(F)(F)F)c1 [compound 253]
[2]
  IC50: 4.06 µM

## COc1ccc(C(=O)N[C@@H](CC(=O)O)c2ccccc2F)nc1-c1ccc(F)cc1 [compound 257]
[2]
  IC50: 1.26 µM

## COc1ccc(C(=O)N[C@@H](CC(=O)O)c2ccccc2F)nc1-c1ccc(Cl)cc1 [compound 258]
[2]
  IC50: 5.27 µM

## COc1ccc(-c2nc(C(=O)N[C@@H](CC(=O)O)c3ccccc3F)ccc2OC)cc1 [compound 259]
[2]
  IC50: 5.01 µM

## COc1ccc(C(=O)N[C@@H](CC(=O)O)c2ccccc2F)nc1-c1ccc(C)cc1 [compound 260]
[2]
  IC50: 5.18 µM

## COc1ccc(C(=O)N[C@@H](CC(=O)O)c2ccccc2F)nc1-c1cccc(Cl)c1 [compound 265]
[2]
  IC50: 1.72 µM

## COc1ccc(C(=O)N[C@@H](CC(=O)O)c2ccccc2F)nc1-c1cccc(F)c1 [compound 266]
[2]
  IC50: 1.26 µM

## COc1ccc(C(=O)N[C@@H](CC(=O)O)c2ccccc2F)nc1-c1cccc(C)c1 [compound 269]
[2]
  IC50: 1.01 µM

## COc1ccc(C(=O)N[C@@H](CC(=O)O)c2ccccc2F)nc1-c1cccc(C#N)c1 [compound 273]
[2]
  IC50: 9.57 µM

## COc1ccc(C(=O)N[C@@H](CC(=O)O)c2ccccc2F)nc1-c1cccc(C(C)=O)c1 [compound 275]
[2]
  IC50: 8.54 µM

## COc1ccc(C(=O)N[C@@H](CC(=O)O)c2ccccc2F)nc1-c1cccc(-c2ccccc2)c1 [compound 276]
[2]
  IC50: 2.16 µM

## COc1ccc(C(=O)N[C@@H](CC(=O)O)c2ccccc2F)nc1-c1cc(F)cc(F)c1 [compound 279]
[2]
  IC50: 3.85 µM

## COc1ccc(C(=O)N[C@@H](CC(=O)O)c2ccccc2F)nc1-c1ccc(F)c(F)c1 [compound 280]
[2]
  IC50: 3.12 µM

## COc1ccc(C(=O)N[C@@H](CC(=O)O)c2ccccc2F)nc1-c1ccc(C#N)s1 [compound 283]
[2]
  IC50: 5.4 µM

## COc1ccc(C(=O)N[C@@H](CC(=O)O)c2ccccc2F)nc1-c1cccnc1 [compound 284]
[2]
  IC50: > 10 µM

## COc1ccc(C(=O)N[C@@H](CC(=O)O)c2ccccc2F)nc1-c1ccc(C)c(F)c1 [compound 290]
[2]
  IC50: 3.81 µM

## COc1ccc(C(=O)N[C@@H](CC(=O)O)c2ccccc2F)nc1-c1ccc(C)cc1C [compound 291]
[2]
  IC50: 4.02 µM

## COc1ccc(C(=O)N[C@@H](CC(=O)O)c2ccccc2F)nc1-c1ccc(F)c(C)c1 [compound 292]
[2]
  IC50: 4.13 µM

## COc1ccc(C(=O)N[C@@H](CC(=O)O)c2ccccc2F)nc1-c1ccccc1C(=O)N(C)C [compound 295]
[2]
  IC50: 4.51 µM

## COc1cc(Cl)ccc1-c1nc(C(=O)N[C@@H](CC(=O)O)c2ccccc2F)ccc1OC [compound 299]
[2]
  IC50: 1.83 µM

## COc1ccc(Cl)cc1-c1nc(C(=O)N[C@@H](CC(=O)O)c2ccccc2F)ccc1OC [compound 300]
[2]
  IC50: 4.11 µM

## COc1ccc(C(=O)N[C@@H](CC(=O)O)c2ccccc2F)nc1-c1cc(C(F)(F)F)ccc1F [compound 304]
[2]
  IC50: 3.99 µM

## COc1ccc(F)c(-c2nc(C(=O)N[C@@H](CC(=O)O)c3ccccc3F)ccc2OC)c1 [compound 307]
[1]
  IC50: 2.92 µM

## COc1ccc(C(C)(C)C)cc1-c1nc(C(=O)N[C@@H](CC(=O)O)c2ccccc2F)ccc1OC [compound 308]
[1]
  IC50: > 10 µM

## COc1ccc(C(=O)N[C@@H](CC(=O)O)c2ccccc2F)nc1-c1ccc(Cl)c(F)c1 [compound 313]
[1]
  IC50: 3.55 µM

## COc1ccc(C(=O)N[C@@H](CC(=O)O)c2ccccc2F)nc1-c1cccc(-c2nnc(C)o2)c1 [compound 316]
[1]
  IC50: > 10 µM

## COc1ccc(C(=O)N[C@@H](CC(=O)O)c2ccccc2F)nc1-c1ccnc(N2CCOCC2)c1 [compound 321]
[1]
  IC50: > 10 µM

## COc1ccc(C(=O)N[C@@H](CC(=O)O)c2ccccc2F)nc1-c1cc(C)ccc1Cl [compound 323]
[1]
  IC50: 2.31 µM

## COc1ccc(C(=O)N[C@@H](CC(=O)O)c2ccccc2F)nc1-c1cccc(F)c1Cl [compound 324]
[1]
  IC50: 1.27 µM

## COc1ccc(C(=O)N[C@@H](CC(=O)O)c2ccccc2F)nc1-c1ccc(C#N)cc1F [compound 325]
[1]
  IC50: 3.58 µM

## COc1ccc(C(=O)N[C@@H](CC(=O)O)c2ccccc2F)nc1-c1cccc(C2(O)COC2)c1 [compound 326]
[1]
  IC50: 8.46 µM

## COc1ccc(C(=O)N[C@@H](CC(=O)O)c2ccccc2F)nc1-c1cccc(C(C)(C)O)c1 [compound 327]
[1]
  IC50: 7.32 µM

## COc1ccc(C(=O)N[C@@H](CC(=O)O)c2ccccc2Cl)nc1-c1cccc(C(F)(F)F)c1 [compound 329]
[1]
  IC50: 3.74 µM

## COc1ccc(C(=O)N[C@@H](CC(=O)O)c2ccccc2Cl)nc1-c1ccc(F)c(Cl)c1 [compound 332]
[1]
  IC50: 5.24 µM

## COc1ccc(C(=O)N[C@@H](CC(=O)O)c2ccccc2Cl)nc1-c1ccc(Cl)cc1 [compound 334]
[1]
  IC50: 1.81 µM

## COc1ccc(-c2nc(C(=O)N[C@@H](CC(=O)O)c3ccccc3Cl)ccc2OC)cc1 [compound 335]
[1]
  IC50: 2.25 µM

## COc1ccc(C(=O)N[C@@H](CC(=O)O)c2ccccc2Cl)nc1-c1ccc(C)cc1 [compound 336]
[1]
  IC50: 3.13 µM

## COc1ccc(C(=O)N[C@@H](CC(=O)O)c2ccccc2Cl)nc1-c1ccc(C(F)(F)F)cc1 [compound 337]
[1]
  IC50: 9.5 µM

## COc1cccc(-c2nc(C(=O)N[C@@H](CC(=O)O)c3ccccc3Cl)ccc2OC)c1 [compound 339]
[1]
  IC50: 2.78 µM

## COc1ccc(C(=O)N[C@@H](CC(=O)O)c2ccccc2Cl)nc1-c1cccc(Cl)c1 [compound 340]
[1]
  IC50: 1.51 µM

## COc1ncc(C(=O)N[C@@H](CC(=O)O)c2ccccc2Cl)cc1-c1cccc(F)c1 [compound 341]
[1]
  IC50: 9.86 µM

## COc1ncc(C(=O)N[C@@H](CC(=O)O)c2ccccc2Cl)cc1-c1ccccc1 [compound 344, (S)-3-(2-Chloro-phenyl)-3-[(6-methoxy-5-phenyl-pyridine-3-carbonyl)-amino]-propionic acid]
[1]
  IC50: 3.49 µM

## COc1ncc(C(=O)N[C@@H](CC(=O)O)c2ccccc2Cl)cc1-c1ccc(F)cc1 [compound 346]
[1]
  IC50: 8.26 µM

## COc1ccc(C(=O)N[C@@H](CC(=O)O)c2ccccc2C)nc1-c1ccc(F)c(Cl)c1 [compound 349]
[1]
  IC50: 1.46 µM

## COc1ccc(C(=O)N[C@@H](CC(=O)O)c2ccccc2C)nc1-c1cccc(C#N)c1 [compound 359]
[1]
  IC50: 4.49 µM

## COc1ccc(C(=O)N[C@@H](CC(=O)O)c2ccccc2C)nc1-c1cccc(C(C)=O)c1 [compound 360]
[1]
  IC50: 2.42 µM

## COc1ccc(C(=O)N[C@@H](CC(=O)O)c2ccccc2C)nc1-c1ccc(C(C)=O)cc1 [compound 361]
[1]
  IC50: 9.24 µM

## COc1ccc(C(=O)N[C@@H](CC(=O)O)c2ccccc2C)nc1-c1cc(F)cc(F)c1 [compound 362]
[1]
  IC50: 1.43 µM

## COc1ccc(C(=O)N[C@@H](CC(=O)O)c2ccccc2C)nc1-c1ccc(C(C)=O)s1 [compound 364]
[1]
  IC50: 9.25 µM

## COc1ccc(C(=O)N[C@@H](CC(=O)O)c2ccccc2C)nc1-c1ccncc1 [compound 365]
[1]
  IC50: 5.45 µM

## COc1ccc(C(=O)N[C@@H](CC(=O)O)c2ccccc2C)nc1-c1ccc(C)c(F)c1 [compound 370]
[1]
  IC50: 1.58 µM

## COc1ccc(C(=O)N[C@@H](CC(=O)O)c2ccccc2C)nc1-c1cncnc1 [compound 372]
[1]
  IC50: 8.88 µM

## COc1ccc(C(=O)N[C@@H](CC(=O)O)c2ccccc2C)nc1-c1ccc(F)nc1 [compound 373]
[1]
  IC50: 1.6 µM

## COc1ccc(C(=O)N[C@@H](CC(=O)O)c2ccccc2C)nc1-c1ccccc1C(=O)N(C)C [compound 374]
[1]
  IC50: 2.48 µM
